Experimental data published in patent US20210227837A1, “NATAMYCIN FOR THE PRESERVATION OF A BAKED PRODUCT” (DSM IP ASSETS B.V., priority 2018, published 2021).

Tests used:
Type in all cases: physicochemical
[1] = Stability of natamycin solutions in propylene glycol and aqueous potassium formate (residual natamycin by HPLC); conditions: natamycin 1% (w/w)
Method: (§1) Natamycin concentrations were determined using […] as follows. • HPLC system: Waters iClass • Column: Waters Symmetry C18, 4.6×150 mm, 3.5 μm, Part No. WAT200632, Column no. 1483, Lot no. 0198313011 • Column temperature: 25° C. • Eluent A: 50 mM ammonium acetate buffer pH 5.8 (with acetic acid) • Eluent B: Acetonitrile • Wash: 60% acetonitrile/40% water (v/v) • Injection volume: 10 μl • Injector temperature: 10° C. in darkness • Flow: 1 mL/min
(§2) The reverse phase HPLC uses a UV detector to determine the residual concentration of natamycin at 303 nm. A set of standard dilutions containing subsequently increasing concentrations of natamycin in methanol was made and from these a calibration curve was obtained. The concentration of natamycin should not exceed a concentration of 88 mg/L. Generally, the dilutions contained 20 mg of sample and […] of methanol.
A 3.5 M solution of potassium formate in water (15.17 g) was mixed with propylene glycol (80.32 g) and natamycin (1.059 g) and heated for 2.57 h until a final temperature of 105° C. A second batch was prepared by mixing a 3.5 M solution of potassium formate in water (15.07 g) with propylene glycol (80.5 g) and natamycin (1.032 g) and heating for 3.25 h until a final temperature of 105° C. Both batches were filtered over a 2 μm filter and combined to give a solution with a natamycin concentration of 1.08% (w/w). […] Samples of the mixtures were analyzed over time by HPLC for residual natamycin concentration. The shelf life test of the mixtures was done by storage at low temperatures (4-7° C.) and ambient temperatures (20-24° C.).

[2] = Stability of natamycin solutions in propylene glycol and aqueous sodium lactate (residual natamycin by HPLC); conditions: 4-7° C., pH 7.8, natamycin 1% (w/w)
Method: as §1, §2
A […] solution of sodium lactate in water (3 g) was mixed with propylene glycol (16 g) and natamycin (0.2 g) and heated until a final temperature of 105° C. to give a solution with a natamycin concentration of 1% (w/w). […] Samples of the mixtures were analyzed over time by HPLC for residual natamycin concentration. The shelf life test of the mixtures was done by storage at low temperatures (4-7° C.).

[3] = Stability of natamycin solutions in aqueous potassium sorbate (residual natamycin by HPLC)
Method: as §1, §2
To obtain a 1% solution, 33 mg of natamycin was used instead of 0.2 g and heating during dissolution was omitted, resulting in a salt/natamycin ratio of 45 (w/w) or 200 (mole/mole). Samples of the mixtures were analyzed over time by HPLC for residual natamycin concentration. The shelf life test of the mixtures was done by storage at low temperatures (4-7° C.) and ambient temperatures (20-24° C.).

Residual natamycin (%) ([1]; Blank (water instead of potassium formate), propylene glycol, 4-7° C., pH 6.2, day 0): 80%
Residual natamycin (%) ([1]; Blank (water instead of potassium formate), propylene glycol, 4-7° C., pH 6.2, day 14): 43%
Residual natamycin (%) ([1]; Blank (water instead of potassium formate), propylene glycol, 4-7° C., pH 6.2, day 23): 22%
Residual natamycin (%) ([1]; Blank (water instead of potassium formate), propylene glycol, 4-7° C., pH 6.2, day 32): 12%
Residual natamycin (%) ([1]; Blank (water instead of potassium formate), propylene glycol, 4-7° C., pH 6.2, day 35): 7%
Residual natamycin (%) ([1]; Blank (water instead of potassium formate), propylene glycol, 20-24° C., pH 6.3, day 0): 83%
Residual natamycin (%) ([1]; Blank (water instead of potassium formate), propylene glycol, 20-24° C., pH 6.3, day 5): 72%
Residual natamycin (%) ([1]; Blank (water instead of potassium formate), propylene glycol, 20-24° C., pH 6.3, day 7): 66%
Residual natamycin (%) ([1]; Blank (water instead of potassium formate), propylene glycol, 20-24° C., pH 6.3, day 12): 55%
Residual natamycin (%) ([1]; Blank (water instead of potassium formate), propylene glycol, 20-24° C., pH 6.3, day 14): 52%
Residual natamycin (%) ([1]; Blank (water instead of potassium formate), propylene glycol, 20-24° C., pH 6.3, day 25): 31%
Residual natamycin (%) ([1]; Blank (water instead of potassium formate), propylene glycol, 20-24° C., pH 6.3, day 27): 25%
Residual natamycin (%) ([1]; Blank (water instead of potassium formate), propylene glycol, 20-24° C., pH 6.3, day 43): 18%
Residual natamycin (%) ([1]; Blank (water instead of potassium formate), propylene glycol, 20-24° C., pH 6.3, day 74): 6%
Residual natamycin (%) ([1]; propylene glycol + aqueous potassium formate, 4-7° C., pH 9.5, day 0): 111%
Residual natamycin (%) ([1]; propylene glycol + aqueous potassium formate, 4-7° C., pH 9.5, day 5): 114%
Residual natamycin (%) ([1]; propylene glycol + aqueous potassium formate, 4-7° C., pH 9.5, day 14): 114%
Residual natamycin (%) ([1]; propylene glycol + aqueous potassium formate, 4-7° C., pH 9.5, day 23): 112%
Residual natamycin (%) ([1]; propylene glycol + aqueous potassium formate, 4-7° C., pH 9.5, day 43): 108%
Residual natamycin (%) ([1]; propylene glycol + aqueous potassium formate, 4-7° C., pH 9.8, day 0): 96%
Residual natamycin (%) ([1]; propylene glycol + aqueous potassium formate, 4-7° C., pH 9.8, day 4): 96%
Residual natamycin (%) ([1]; propylene glycol + aqueous potassium formate, 4-7° C., pH 9.8, day 10): 97%
Residual natamycin (%) ([1]; propylene glycol + aqueous potassium formate, 4-7° C., pH 9.8, day 15): 88%
Residual natamycin (%) ([1]; propylene glycol + aqueous potassium formate, 4-7° C., pH 9.8, day 18): 92%
Residual natamycin (%) ([1]; propylene glycol + aqueous potassium formate, 4-7° C., pH 9.8, day 25): 91%
Residual natamycin (%) ([1]; propylene glycol + aqueous potassium formate, 4-7° C., pH 9.8, day 42): 88%
Residual natamycin (%) ([1]; propylene glycol + aqueous potassium formate, 4-7° C., pH 9.8, day 53): 90%
Residual natamycin (%) ([1]; propylene glycol + aqueous potassium formate, 4-7° C., pH 9.8, day 60): 96%
Residual natamycin (%) ([1]; propylene glycol + aqueous potassium formate, 4-7° C., pH 9.8, day 80): 87%
Residual natamycin (%) ([1]; propylene glycol + aqueous potassium formate, 4-7° C., pH lowered to 5.9 by formic acid, day 0): 83%
Residual natamycin (%) ([1]; propylene glycol + aqueous potassium formate, 4-7° C., pH lowered to 5.9 by formic acid, day 5): 66%
Residual natamycin (%) ([1]; propylene glycol + aqueous potassium formate, 4-7° C., pH lowered to 5.9 by formic acid, day 14): 45%
Residual natamycin (%) ([1]; propylene glycol + aqueous potassium formate, 4-7° C., pH lowered to 5.9 by formic acid, day 23): 21%
Residual natamycin (%) ([1]; propylene glycol + aqueous potassium formate, 4-7° C., pH lowered to 5.9 by formic acid, day 43): 2%
Residual natamycin (%) ([1]; propylene glycol + aqueous potassium formate, 4-7° C., pH lowered to 8.8 by formic acid, day 0): 94%
Residual natamycin (%) ([1]; propylene glycol + aqueous potassium formate, 4-7° C., pH lowered to 8.8 by formic acid, day 5): 96%
Residual natamycin (%) ([1]; propylene glycol + aqueous potassium formate, 4-7° C., pH lowered to 8.8 by formic acid, day 14): 94%
Residual natamycin (%) ([1]; propylene glycol + aqueous potassium formate, 4-7° C., pH lowered to 8.8 by formic acid, day 23): 93%
Residual natamycin (%) ([1]; propylene glycol + aqueous potassium formate, 4-7° C., pH lowered to 8.8 by formic acid, day 43): 86%
Residual natamycin (%) ([1]; propylene glycol + aqueous potassium formate, 4-7° C., pH lowered to 9.0 by formic acid, day 0): 93%
Residual natamycin (%) ([1]; propylene glycol + aqueous potassium formate, 4-7° C., pH lowered to 9.0 by formic acid, day 5): 97%
Residual natamycin (%) ([1]; propylene glycol + aqueous potassium formate, 4-7° C., pH lowered to 9.0 by formic acid, day 14): 94%
Residual natamycin (%) ([1]; propylene glycol + aqueous potassium formate, 4-7° C., pH lowered to 9.0 by formic acid, day 23): 93%
Residual natamycin (%) ([1]; propylene glycol + aqueous potassium formate, 4-7° C., pH lowered to 9.0 by formic acid, day 43): 92%
Residual natamycin (%) ([1]; propylene glycol + aqueous potassium formate, 20-24° C., pH 9.8, day 0): 92%
Residual natamycin (%) ([1]; propylene glycol + aqueous potassium formate, 20-24° C., pH 9.8, day 5): 95%
Residual natamycin (%) ([1]; propylene glycol + aqueous potassium formate, 20-24° C., pH 9.8, day 7): 95%
Residual natamycin (%) ([1]; propylene glycol + aqueous potassium formate, 20-24° C., pH 9.8, day 9): 92%
Residual natamycin (%) ([1]; propylene glycol + aqueous potassium formate, 20-24° C., pH 9.8, day 12): 87%
Residual natamycin (%) ([1]; propylene glycol + aqueous potassium formate, 20-24° C., pH 9.8, day 18): 92%
Residual natamycin (%) ([1]; propylene glycol + aqueous potassium formate, 20-24° C., pH 9.8, day 20): 87%
Residual natamycin (%) ([1]; propylene glycol + aqueous potassium formate, 20-24° C., pH 9.8, day 27): 86%
Residual natamycin (%) ([1]; propylene glycol + aqueous potassium formate, 20-24° C., pH 9.8, day 32): 82%
Residual natamycin (%) ([1]; propylene glycol + aqueous potassium formate, 20-24° C., pH 9.8, day 35): 83%
Residual natamycin (%) ([1]; propylene glycol + aqueous potassium formate, 20-24° C., pH 9.8, day 43): 80%
Residual natamycin (%) ([1]; propylene glycol + aqueous potassium formate, 20-24° C., pH 9.8, day 74): 69%
Residual natamycin (%) ([2]; day 0): 89%
Residual natamycin (%) ([2]; day 1): 88%
Residual natamycin (%) ([2]; day 3): 84%
Residual natamycin (%) ([2]; day 6): 81%
Residual natamycin (%) ([2]; day 10): 84%
Residual natamycin (%) ([2]; day 27): 71%
Residual natamycin (%) ([2]; day 38): 63%
Residual natamycin (%) ([2]; day 45): 62%
Residual natamycin (%) ([2]; day 65): 45%
Residual natamycin (%) ([3]; 4-7° C., pH 9.7, natamycin 6% (w/w), day 0): 103%
Residual natamycin (%) ([3]; 4-7° C., pH 9.7, natamycin 6% (w/w), day 5): 103%
Residual natamycin (%) ([3]; 4-7° C., pH 9.7, natamycin 6% (w/w), day 6): 99%
Residual natamycin (%) ([3]; 4-7° C., pH 9.7, natamycin 6% (w/w), day 12): 100%
Residual natamycin (%) ([3]; 4-7° C., pH 9.7, natamycin 6% (w/w), day 31): 92%
Residual natamycin (%) ([3]; 4-7° C., pH 9.7, natamycin 6% (w/w), day 42): 92%
Residual natamycin (%) ([3]; 4-7° C., pH 9.7, natamycin 6% (w/w), day 49): 88%
Residual natamycin (%) ([3]; 4-7° C., pH 9.7, natamycin 6% (w/w), day 69): 80%
Residual natamycin (%) ([3]; 20-24° C., pH 9.6, natamycin 6% (w/w), day 0): 105%
Residual natamycin (%) ([3]; 20-24° C., pH 9.6, natamycin 6% (w/w), day 2): 104%
Residual natamycin (%) ([3]; 20-24° C., pH 9.6, natamycin 6% (w/w), day 6): 98%
Residual natamycin (%) ([3]; 20-24° C., pH 9.6, natamycin 6% (w/w), day 8): 98%
Residual natamycin (%) ([3]; 20-24° C., pH 9.6, natamycin 6% (w/w), day 15): 97%
Residual natamycin (%) ([3]; 20-24° C., pH 9.6, natamycin 6% (w/w), day 20): 95%
Residual natamycin (%) ([3]; 20-24° C., pH 9.6, natamycin 6% (w/w), day 23): 93%
Residual natamycin (%) ([3]; 20-24° C., pH 9.6, natamycin 6% (w/w), day 34): 81%
Residual natamycin (%) ([3]; 20-24° C., pH 9.6, natamycin 6% (w/w), day 65): 73%
Residual natamycin (%) ([3]; 20-24° C., pH 9.9, natamycin 1% (w/w), day 0): 104%
Residual natamycin (%) ([3]; 20-24° C., pH 9.9, natamycin 1% (w/w), day 2): 101%
Residual natamycin (%) ([3]; 20-24° C., pH 9.9, natamycin 1% (w/w), day 6): 97%
Residual natamycin (%) ([3]; 20-24° C., pH 9.9, natamycin 1% (w/w), day 8): 94%
Residual natamycin (%) ([3]; 20-24° C., pH 9.9, natamycin 1% (w/w), day 15): 88%
Residual natamycin (%) ([3]; 20-24° C., pH 9.9, natamycin 1% (w/w), day 20): 79%
Residual natamycin (%) ([3]; 20-24° C., pH 9.9, natamycin 1% (w/w), day 23): 80%
Residual natamycin (%) ([3]; 20-24° C., pH 9.9, natamycin 1% (w/w), day 34): 62%
Residual natamycin (%) ([3]; 20-24° C., pH 9.9, natamycin 1% (w/w), day 65): 45%
Structure (SMILES): C[C@@H]1C/C=C/C=C/C=C/C=C/[C@H](O[C@@H]2O[C@H](C)[C@@H](O)[C@H](N)[C@@H]2O)C[C@@H]2O[C@](O)(C[C@@H](O)C[C@H]3O[C@@H]3/C=C/C(=O)O1)C[C@H](O)[C@H]2C(=O)O [natamycin]
